Values joined by “and” are separate entries in the source; they are usually repeats but may differ in a detail not shown here. Equal entries are not always repeated. Where two headings read alike, the source gives them in different places.
Key:
[1] = target: sucrase; assay: Sucrase inhibition assay; format: biochemical; conditions: mean ± SD; triplicate; sucrose substrate, 37 °C; read-out: IC50 Values (μM) Against Sucrase
Experimental: 3.5.2. Sucrase Inhibition Assay
The sucrase inhibition assay was performed according to the method outlined by Honda et al. with some modifications. In brief, 10 µL of enzyme solution (100 U/mL) and 30 µL of test sample solution with appropriate concentration (dissolved in distilled water) were added into the 96-well plates, and were incubated for 10 min at 37 °C. The reaction was conducted by addition of 100 µL of sucrose solution (60 mM, dissolved in 0.1 M phosphate buffer solution). Then, the mixture was added to 200 µL of 3,5-dinitrosalysilic acid, which was heated in boiling water for 5 min to stop the reaction. The absorbance of each tested compound was measured at 540 nm. The inhibition rates were calculated using the following equation. All experiments were measured in triplicate, and a logarithmic regression curve was established to calculate IC50 values. (1) Inhibition % = Acontrol - Asample/Acontrol × 100 where Acontrol represents the absorbance of the mixture of […], sucrose solution 3,5-dinitrosalysilic acid and enzyme solution; while the Asample is the absorbance of the mixture of phosphate buffer, sucrose solution 3,5-dinitrosalysilic acid and enzyme solution.

[2] = target: T1, pancreatic lipase (PL) (Sus scrofa, UniProt P00591); assay: Pancreatic lipase (PL) inhibition assay (pNP laurate method); format: biochemical; conditions: mean ± SD; triplicate; pNP laurate substrate, 30 min at 37 °C, Tris buffer pH 8.2; read-out: IC50 Values (μM) Against PL
T1 construct: purchased Sigma Aldrich Co. (St Louis, MO, USA)
T1 sequence (P00591 1-450): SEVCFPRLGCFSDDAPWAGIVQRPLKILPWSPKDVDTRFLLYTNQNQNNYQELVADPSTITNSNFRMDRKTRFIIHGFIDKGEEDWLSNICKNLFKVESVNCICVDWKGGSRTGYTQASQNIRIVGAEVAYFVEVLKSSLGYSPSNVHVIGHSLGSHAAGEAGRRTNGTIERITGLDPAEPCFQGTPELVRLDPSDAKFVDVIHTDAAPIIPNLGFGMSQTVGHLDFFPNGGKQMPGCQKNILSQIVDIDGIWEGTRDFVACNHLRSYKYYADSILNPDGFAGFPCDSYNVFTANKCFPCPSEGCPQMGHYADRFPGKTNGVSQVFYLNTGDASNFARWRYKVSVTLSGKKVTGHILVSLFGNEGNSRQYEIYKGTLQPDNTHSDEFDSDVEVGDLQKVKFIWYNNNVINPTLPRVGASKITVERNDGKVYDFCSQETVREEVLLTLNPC
Experimental: 3.6. Pancreatic Lipase (PL) Inhibition Assay
This assay was carried out using p-nitrophenyl laurate (pNP laurate) method with slight modification. In detail, 150 µL lipase solution (10 mg/mL, dissolved in the 0.1 M Tris buffer) was mixed with 50 µL tested sample solution (inhibitors) in a 1.5 mL centrifuge tube, then 350 µL 0.1 M Tris buffer (pH = 8.2) was added and pre-incubated. After the addition of 450 µL pNP laurate (substrate), the reaction was incubated for 30 min at 37 °C. The mixtures were heated in boiling water for 5 min to terminate the reaction. After cooling to RT, the tube was centrifuged at 12,000 rpm for 3 min. A portion of 100 µL of mixture was added into a 96-well plate, which was measured at 405 nm. The percentage of inhibitory activities was calculated using the formula below. All data were performed in triplicate, and a logarithmic regression curve was established to calculate IC50 values. (2) Inhibition% = [1 - (Asample - Ablank/Atest - Acontrol)] × 100 where Asample is the absorbance of the mixture of sample solution, pNP solution and enzyme solution; Ablank is the absorbance of the mixture of sample solution and pNP solution without enzyme; Atest is the absorbance of the mixture of Tris buffer, pNP solution and enzyme solution; Acontrol is the absorbance of the mixture of Tris buffer and pNP solution without enzyme.

[3] = target: T2, porcine pancreatic α-amylase (PPA) (Sus scrofa, UniProt P00690); parameters: purchased Sigma Aldrich Co. (St Louis, MO, USA); method as in PMID 30360574; conditions: earlier study of the same authors; cited from earlier work
T2 sequence (P00690 16-511): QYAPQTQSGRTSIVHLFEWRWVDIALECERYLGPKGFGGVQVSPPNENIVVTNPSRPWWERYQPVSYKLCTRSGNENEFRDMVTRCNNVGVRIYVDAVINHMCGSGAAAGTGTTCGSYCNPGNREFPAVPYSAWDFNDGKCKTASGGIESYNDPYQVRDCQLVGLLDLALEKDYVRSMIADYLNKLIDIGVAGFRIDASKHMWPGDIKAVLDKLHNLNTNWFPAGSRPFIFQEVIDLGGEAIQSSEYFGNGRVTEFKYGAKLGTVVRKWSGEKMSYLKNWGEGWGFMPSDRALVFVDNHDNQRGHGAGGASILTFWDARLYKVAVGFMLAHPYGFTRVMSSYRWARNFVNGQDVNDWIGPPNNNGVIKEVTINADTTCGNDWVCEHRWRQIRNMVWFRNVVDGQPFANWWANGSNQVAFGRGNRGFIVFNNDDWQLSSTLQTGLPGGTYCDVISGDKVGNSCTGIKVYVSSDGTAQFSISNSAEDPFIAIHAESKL

[4] = target: T2, porcine pancreatic α-amylase (PPA); assay: Porcine pancreatic α-amylase (PPA) inhibition assay

Row | SMILES | IC50 [1] [µM] | IC50 [2] | IC50 [4] [µM] | IC50 ([4]; read-out: IC50 Values (μM) Against PPA, mean ± SD, acarbose as positive control) [µM] | α-amylase IC50, fold stronger than acarbose [3] [fold]
1 | CC(=O)OC[C@H]1O[C@H](O[C@H]2[C@H](O)[C@@H](O)[C@@H](O[C@H]3[C@H](O)[C@@H](O)[C@@H](O[C@H]4[C@H](O)[C@@H](O)C(O)O[C@@H]4CO)O[C@@H]3CO)O[C@@H]2CO)[C@H](O)[C@@H](O)[C@@H]1O[C@H]1O[C@H](C)[C@@H](N[C@H]2C=C(CO)[C@@H](O[C@H]3O[C@H](CO)[C@@H](O[C@H]4O[C@H](C)[C@@H](N[C@H]5C=C(CO)[C@@H](O)[C@H](O)[C@H]5O)[C@H](O)[C@H]4O)[C@H](O)[C@H]3O)[C@H](O)[C@H]2O)[C@H](O)[C@H]1O (some centres unmarked) [Compound 8, D6-O-acetyl-acarviostatin II03] | 0.41 ± 0.05 | 2 ± 0.18 µM | – | – | 540
2 | CCC(C)C(=O)OCC1OC(OC2C(CO)OC(OC3C(CO)OC(OC4C(CO)OC(O)C(O)C4O)C(O)C3O)C(O)C2O)C(O)C(O)C1OC1OC(C)C(NC2C=C(CO)C(O)C(O)C2O)C(O)C1O (centres unmarked) [Compound 2, D6-O-2-methyl-butyryl-acarviostatin I03] | 3.12 ± 0.1 | 4.92 ± 0.2 µM | 0.15 ± 0.01 | – | –
3 | CC(C)C(=O)OCC1OC(OC2C(CO)OC(OC3C(CO)OC(OC4C(CO)OC(O)C(O)C4O)C(O)C3O)C(O)C2O)C(O)C(O)C1OC1OC(C)C(NC2C=C(CO)C(O)C(O)C2O)C(O)C1O (centres unmarked) [Compound 1] | 5.5 ± 0.09 | 2.16 ± 0.6 µM | 0.22 ± 0.04 | – | –
4 | CCC(=O)OC[C@H]1O[C@H](O[C@H]2[C@H](O)[C@@H](O)[C@@H](O[C@H]3[C@H](O)[C@@H](O)[C@@H](O[C@H]4[C@H](O)[C@@H](O)C(O)O[C@@H]4CO)O[C@@H]3CO)O[C@@H]2CO)[C@H](O)[C@@H](O)[C@@H]1O[C@H]1O[C@H](C)[C@@H](N[C@H]2C=C(CO)[C@@H](O)[C@H](O)[C@H]2O)[C@H](O)[C@H]1O (some centres unmarked) [Compound 6, D6-O-propionyl-acarviostatin I03] | 2.36 ± 0.12 | 15.9 ± 0.6 µM | – | – | –
5 | CC(C)C(=O)OCC1OC(OC2C(CO)OC(OC3C(CO)OC(OC4C(CO)OC(O)C(O)C4O)C(O)C3O)C(O)C2O)C(O)C(O)C1OC1OC(C)C(NC2C=C(CO)C(OC3OC(CO)C(OC4OC(C)C(NC5C=C(CO)C(O)C(O)C5O)C(O)C4O)C(O)C3O)C(O)C2O)C(O)C1O (centres unmarked) [Compound 3] | 1.45 ± 0.07 | 0.82 ± 0.08 µM | – | 0.04 ± 0.01 | –

The next lines start with results.

Row | IC50 [1] [µM] | IC50 [2] | IC50 [4] [µM] | IC50 ([4]; read-out: IC50 Values (μM) Against PPA, mean ± SD, acarbose as positive control) [µM] | SMILES | α-amylase IC50, fold stronger than acarbose [3] [fold]
6 | 3.68 ± 0.13 | 8.1 ± 0.6 µM | – | – | CC(O)CC(=O)OC[C@H]1O[C@H](O[C@H]2[C@H](O)[C@@H](O)[C@@H](O[C@H]3[C@H](O)[C@@H](O)[C@@H](O[C@H]4[C@H](O)[C@@H](O)C(O)O[C@@H]4CO)O[C@@H]3CO)O[C@@H]2CO)[C@H](O)[C@@H](O)[C@@H]1O[C@H]1O[C@H](C)[C@@H](N[C@H]2C=C(CO)[C@@H](O)[C@H](O)[C@H]2O)[C@H](O)[C@H]1O (stereo partly drawn) [Compound 7, D6-O-β-hydroxybutyryl-acarviostatin I03] | –
7 | 9.34 ± 0.12 | 3.2 ± 0.1 µM | 0.34 ± 0.07 | – | CC(C)CC(=O)OC[C@H]1O[C@H](O[C@H]2[C@H](O)[C@@H](O)[C@@H](O[C@H]3[C@H](O)[C@@H](O)[C@@H](O[C@H]4[C@H](O)[C@@H](O)C(O)O[C@@H]4CO)O[C@@H]3CO)O[C@@H]2CO)[C@H](O)[C@@H](O)[C@@H]1O[C@H]1O[C@H](C)[C@@H](N[C@H]2C=C(CO)[C@@H](O)[C@H](O)[C@H]2O)[C@H](O)[C@H]1O (some centres unmarked) [Compound 4, isovalertatin M03] | –
8 | 2.98 ± 0.1 | 19.7 ± 1 µM | – | – | CC(=O)OC[C@H]1O[C@H](O[C@H]2[C@H](O)[C@@H](O)[C@@H](O[C@H]3[C@H](O)[C@@H](O)[C@@H](O[C@H]4[C@H](O)[C@@H](O)C(O)O[C@@H]4CO)O[C@@H]3CO)O[C@@H]2CO)[C@H](O)[C@@H](O)[C@@H]1O[C@H]1O[C@H](C)[C@@H](N[C@H]2C=C(CO)[C@@H](O)[C@H](O)[C@H]2O)[C@H](O)[C@H]1O (some centres unmarked) [Compound 5, D6-O-acetyl-acarviostatin I03] | –
9 | 11.3 ± 0.2 | > 200 µM and 208 µM | – | – | C[C@H]1O[C@H](O[C@H]2[C@H](O)[C@@H](O)[C@@H](O[C@H]3[C@H](O)[C@@H](O)C(O)O[C@@H]3CO)O[C@@H]2CO)[C@H](O)[C@@H](O)[C@@H]1N[C@H]1C=C(CO)[C@@H](O)[C@H](O)[C@H]1O (some centres unmarked) [acarbose, reference compound] | –
